Results as given in patent publication US6210901A, “Specific binding substances for antibodies and their use for immunoassays or vaccines” (Roche Diagnostics GmbH, priority 1994, dated 2001).

Assays:
[1] = test system: antibodies which are directed against the core-epitope of the HCV virus; assay: Immunoassay (streptavidin tube, peroxidase/ABTS) with biotinylated peptides; reactivity relative to the natural epitope core2m; type: binding; design: key to serum A rel. reactivity / serum B rel. reactivity: ratio to reference antigen core2m at the same concentration; conditions: for pos. control rel. reactivity: positive control serum, relative to core2m at same concentration; for serum A rel. reactivity: positive serum A; for serum B rel. reactivity: positive serum B
Method: Procedure for an immunoassay using biotinylated binding substances according to the invention against antibodies which are directed against the core-epitope of the HCV virus.
In the binding substances that were used one or several CO--NH peptide binding groups were replaced according to the invention (core2mI-core2mVI)compared to the natural epitope "core2m".
20 μl serum was placed in each case in streptavidin-coated ES 22 tubes from the Boehringer Mannheim Company (negative serum, positive serum, positive sera A-C). Then 1000 μl peptide solution (core 2m or core 2m I-VII concentration 100 ng/ml in potassium phosphate buffer 40 mmol/l, pH 7.0) was added by pipette and allowed to stand for 60 min in an ES 22 instrument from the Boehringer Mannheim Company. After 60 min incubation the peptide/serum solution is removed by pipette and the tubes are washed with test wash solution: 40 mmol/l potassium phosphate buffer, pH 7.0. Then 1000 μl peroxidase conjugate solution (peroxidase conjugated to an anti Fcγ antibody, 0.5 U/ml) is added by pipette and incubated for a further 60 min. The conjugate solution is removed by pipette and the tube is washed with washing solution. Afterwards 1000 μl ABTS solution (1.9 mmol/l) is added by pipette and it is incubated for a further 60 min. After 60 min incubation the solution is pipetted from the tube into a photometer and measured at 405 nm. […] The reactivities are derived from the measured result of the immunoassay relative to a standard curve.
The relative concentration used of the peptide antigens I-VI was derived from their HPLC integrals. The reactivity of the antigens I-VI was determined relative to the reference antigen core2m at the same concentration.

[2] = test system: pancreatin; assay: HCV core2m stress with pancreatin (protease degradation, analytical HPLC); type: in vitro ADME; conditions: for Area after 55 min (HPLC peptide peak) / Area after 125 min (HPLC peptide peak): pancreatin c = 1 mg/ml, 50 μl to 200 μl peptide
Description: The protease stability of a binding substance according to the invention can be determined by exposing it to e.g. pancreatin, a mixture of frequently occurring proteases (including carboxy-peptidase A and B, trypsin, pepsin, chymotrypsin, elastase) or pronase (including aminopeptidase, carboxypeptidase, alkaline and neutral proteinase). The reduced enzymatic degradation of the binding substance can be determined by HPLC analysis of the appearance of peptide fragments over time.
Experimental procedure for core2m digestion with pancreatin.
Firstly core2m solutions were prepared in distilled water at an approximate c=1-3 mg/ml. These solutions were injected into the analytical HPLC (injection volume=40 μl).
These solutions were now diluted such that the area had to be […] when injected again into the HPLC. e.g. Area of the core2m IV solution was 600 000 on the analytical HPLC for an injection volume of 40 μl. Now two parts of this solution are diluted with one part of distilled water.
In each case 200 μl of these adjusted core2m solutions were admixed with 50 μl pancreatin solution (c=1 mg/ml).
A sample of these solutions was injected into the analytical HPLC after 55 min and after 125 min. As a reference a 200 μl sample of each core2m solution was admixed with 50 μl distilled water and injected into the analytical HPLC.
The percentage degradation of the respective peptide can be determined from the areas of the peptide peaks in the analytical HPLC.
Core2m solutions were adjusted to HPLC areas of 400 000 in 40 μl
Pancreatin solution c = 1 mg/ml in H2 O
200 μl of the adjusted core2m solution was allowed to react with 50

Substance	pos. control rel. reactivity [1]	serum A rel. reactivity [1]	serum B rel. reactivity [1]	Area after 55 min (HPLC peptide peak) [2]	Area after 125 min (HPLC peptide peak) [2]	% (percentage resistance towards protease degradation) after 55 min ([2]; pancreatin)	% (percentage resistance towards protease degradation) after 125 min ([2]; pancreatin)	Serum C rel. reactivity ([1]; positive serum C)	resistance towards protease degradation ([2]; pancreatin, 55 min and 125 min)	binding of the artificial epitopes (in words) ([1]; modified epitopes, Example 1)
Bi-XUZUPQDVKFP4 QIVGG V [core2mIV]	0.370	0.250	0.210	3057359	2715127	90%	80%	–	–	–
Bi-XUZUPQDVKFPGGGQIVGGV [core2m, reference compound]	1.140	1.310	1.170	0	0	0%	0%	1.140	0%	–
Bi-XUZUPQDVKFPGGGQIVI V [core2mI]	1.140	0.621	0.959	3252704	2460332	100%	76%	–	–	bind specifically and selectively
